Assay [1] relates to pRhlI promoters (RhlR). Also on record: method as in PMID 29992956. The note with it: cited from earlier work.
Assay [2] has as its system BjaRS107R (B0033|ATG) receiver cells. The assay can be described thus: BjaR receiver cell AHSL dose-response (gfp reporter, plate reader). Format: cell-based, E. coli XL10-Gold. Particulars: C4-HSL vs IV-HSL. The source says: (§1) These findings are consistent with the predicted translation initiation rates of the respective sequences—translation from the BBa_B0033 RBS provides 1% of protein yield compared to the BBa_B0034 RBS, just as an CTG start codon provides 1% of the protein yield compared to an ATG start codon[30],[31]. This also offers support as to why the ON-state gfp expression level increased in variants with a tighter OFF-state; more cellular resources were available for GFP synthesis when comparatively fewer were allocated to BjaR synthesis. To elucidate the impact of the S107R variant on gene circuit performance, we introduced the S107R variant alone back into the bjaRWT gene, in the context of the BBa_B0033 RBS background.
(§2) In addition to quantifying how these BjaR receiver cells responded to their branched, cognate ligand, we also sought to determine whether the BjaR receiver cells could be activated by structurally dissimilar AHSLs involved in the LuxI/R, EsaI/R, LasI/R and RhlI/R QS systems previously used in synthetic cell communication[5],[7],[8]. To this end, we measured the fluorescence of BjaR receiver cells grown in the presence of their activators, 3OC6-HSL, 3OC12-HSL and C4-HSL, respectively (Supplementary Fig. 13a).
(§3) The BjaR reporter plasmids were retransformed into E. coli XL10-Gold cells for each experiment. A single colony was used to inoculate 5 ml LB + Amp media and incubated at 37 °C, 225 r.p.m. overnight. Overnight cultures were diluted 1/250 or 1/500 in 5 ml M9 minimal media + Amp and incubated at 37 °C, 225 r.p.m. for 3 h and 45 min (until OD600 = ~0.075). Cultures were diluted down to OD600 = 0.05 with M9 minimal media + Amp, and 200 µl was added to wells of a 96-well plate containing 1 µl IV-HSL dissolved in DMSO or 1 µl BjaI CFPS reactions (IV-HSL concentrations obtained from serial dilution from 63.2 µM to 632 pM; final DMSO concentration = 0.5%). Cells were incubated at 37 °C, 800 r.p.m., in a thermomixer with a heated lid for 4 h. Fluorescence and OD600 were measured in a Tecan M1000 infinite plate reader (excitation, 488 nm; emission, 510 nm; bandwidth, 5 nm; gain, 101 and z position, 21,311 µm). The dose–response curves were fitted to the function indicated by Eq. (1), where a = maximal fluorescence output, b = basal fluorescence output, X = concentration of AHSL, GFP = fluorescence at the given condition, EC50 = AHSL at 50% maximal fluorescence output and h = hill coefficient. EC50 and h were derived using the nonlinear regression model based on Eq. (1), in MATLAB. A summary of the dose–response data is available in Supplementary Table 1.1 GFP=b+a−b/1+10^logEC50−X×h

Assay [3] concerns BjaRWT (B0033|ATG) receiver cells. Described as above. Format: cell-based, E. coli XL10-Gold.
Excerpt: as §1, §2, §3

As for `CCCC(=O)N[C@H]1CCOC1=O` [C4-HSL, N-butyryl-L-homoserine lactone], the “concentration required to fully activate expression from pRhlI promoters” value in assay [1] is recorded as above 100 µM. Besides, the “sensitivity for IV-HSL over C4-HSL” value in assay [2] is recorded as around 126 fold. Moreover, in assay [3] (0.36 µM), the “activation of receiver cells at maximal concentration tested” value is “partially activated”. For the same compound, the “C4-HSL required relative to IV-HSL for the same fluorescence output (lower sensitivity)” value in assay [3] (C4-HSL vs IV-HSL) is on record as around 126 ×.

(Values after article PMC10449621, “Engineering cellular communication between light-activated synthetic cells and bacteria” (Nature Chemical Biology, 2023).)
